# Experimental data: ChEMBL document CHEMBL1201862, “PubChem BioAssay data set” (2004)
#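 Interpolation was linear, between the two tested concentrations surrounding the appropriate level; five concentrations were tested over 48 hours in 96-well plates. GI50 marks 50% less growth.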 The source made the active and inactive calls. Cut-off read from the data, not from the text of the source: active = GI50 up to about 1.1 µM and inactive = higher.
# Assays:
# Assay in all cases: DTP human tumour cell line panel, 48 h
# LOX IMVI = test system: LOX IMVI
# SK-OV-3 = test system: SK-OV-3
# OVCAR-8 = test system: OVCAR-8
# IGROV-1 = test system: IGROV-1
# HL-60 = test system: HL-60
# CCRF-CEM = test system: CCRF-CEM
# SW-620 = test system: SW-620
# HOP-92 = test system: HOP-92
# SNB-75 = test system: SNB-75
# RXF 393 = test system: RXF 393
# OVCAR-5 = test system: OVCAR-5
# DU-145 = test system: DU-145
# MDA-MB-231 = test system: MDA-MB-231
# UACC-257 = test system: UACC-257
# Malme-3M = test system: Malme-3M
# SNB-19 = test system: SNB-19
# HT-29 = test system: HT-29
# CAKI-1 = test system: CAKI-1
# SK-MEL-28 = test system: SK-MEL-28
# HCT-116 = test system: HCT-116
# MOLT-4 = test system: MOLT-4
# SF-295 = test system: SF-295
# MCF7 = test system: MCF7
# SF-539 = test system: SF-539
# MDA-MB-435 = test system: MDA-MB-435
# EKVX = test system: EKVX
# COLO 205 = test system: COLO 205
# BT-549 = test system: BT-549
# PC-3 = test system: PC-3
# RPMI-8226 = test system: RPMI-8226
# HCT-15 = test system: HCT-15
# SF-268 = test system: SF-268
# K562 = test system: K562
# NCI-H23 = test system: NCI-H23
# MDA-N = test system: MDA-N
# SR = test system: SR
# HOP-62 = test system: HOP-62
# UO-31 = test system: UO-31
# SK-MEL-5 = test system: SK-MEL-5
# SN12C = test system: SN12C
# A498 = test system: A498
# M14 = test system: M14
# KM12 = test system: KM12
# UACC-62 = test system: UACC-62
# TK-10 = test system: TK-10
# OVCAR-3 = test system: OVCAR-3
# ACHN = test system: ACHN
# NCI/ADR-RES = test system: NCI/ADR-RES
# HCC 2998 = test system: HCC 2998
# T47D = test system: T47D
# Hs-578T = test system: Hs-578T
# NCI-H460 = test system: NCI-H460
# A549 = test system: A549
# 786-0 = test system: 786-0
# NCI-H522 = test system: NCI-H522
# U-251 = test system: U-251
# OVCAR-4 = test system: OVCAR-4
# NCI-H226 = test system: NCI-H226
# SK-MEL-2 = test system: SK-MEL-2
structure (smiles),measurement,setting,value
CCOC(=O)c1nc2ccc(C(F)(F)F)cc2nc1Nc1ccc(Cl)c(Cl)c1,GI50,LOX IMVI,> 100 µM (inactive)
same,GI50,SK-OV-3,> 100 µM (inactive)
same,GI50,OVCAR-8,74.5 µM (inactive)
same,GI50,IGROV-1,> 100 µM (inactive)
same,GI50,HL-60,95.7 µM (inactive)
same,GI50,CCRF-CEM,86.1 µM (inactive)
same,GI50,SW-620,> 100 µM (inactive)
same,GI50,HOP-92,> 100 µM (inactive)
same,GI50,SNB-75,48.8 µM (inactive)
same,GI50,RXF 393,> 100 µM (inactive)
same,GI50,OVCAR-5,> 100 µM (inactive)
same,GI50,DU-145,70.6 µM (inactive)
same,GI50,MDA-MB-231,60 µM (inactive)
same,GI50,UACC-257,> 100 µM (inactive)
same,GI50,Malme-3M,> 100 µM (inactive)
same,GI50,SNB-19,42.5 µM (inactive)
same,GI50,HT-29,> 100 µM (inactive)
same,GI50,CAKI-1,57.1 µM (inactive)
same,GI50,SK-MEL-28,> 100 µM (inactive)
same,GI50,HCT-116,64.7 µM (inactive)
same,GI50,MOLT-4,> 100 µM (inactive)
same,GI50,SF-295,30.3 µM (inactive)
same,GI50,MCF7,> 100 µM (inactive)
same,GI50,SF-539,69.7 µM (inactive)
same,GI50,MDA-MB-435,> 100 µM (inactive)
same,GI50,EKVX,> 100 µM (inactive)
same,GI50,COLO 205,> 100 µM (inactive)
same,GI50,BT-549,> 100 µM (inactive)
same,GI50,PC-3,> 100 µM (inactive)
same,GI50,RPMI-8226,> 100 µM (inactive)
same,GI50,HCT-15,94.4 µM
same,GI50,SF-268,> 100 µM (inactive)
same,GI50,K562,39.4 µM (inactive)
same,GI50,NCI-H23,> 100 µM (inactive)
same,GI50,MDA-N,96.8 µM (inactive)
same,GI50,SR,75.3 µM (inactive)
same,GI50,HOP-62,27.5 µM (inactive)
same,GI50,UO-31,> 100 µM (inactive)
same,GI50,SK-MEL-5,> 100 µM (inactive)
same,GI50,SN12C,> 100 µM (inactive)
same,GI50,A498,> 100 µM (inactive)
same,GI50,M14,79.8 µM (inactive)
same,GI50,KM12,75.9 µM (inactive)
same,GI50,UACC-62,> 100 µM (inactive)
same,GI50,TK-10,> 100 µM (inactive)
same,GI50,OVCAR-3,38.3 µM (inactive)
same,GI50,ACHN,97.1 µM (inactive)
same,GI50,NCI/ADR-RES,> 100 µM (inactive)
same,GI50,HCC 2998,39.5 µM (inactive)
same,GI50,T47D,> 100 µM (inactive)
same,GI50,Hs-578T,97.3 µM (inactive)
same,GI50,NCI-H460,> 100 µM (inactive)
same,GI50,A549,67.8 µM (inactive)
same,GI50,786-0,75.3 µM (inactive)
same,GI50,NCI-H522,> 100 µM (inactive)
CC(=O)C(N1CCCCC1)C(O)(C(F)(F)F)C(F)(F)F (stereo not drawn),GI50,LOX IMVI,> 100 µM (inactive)
same,GI50,SK-OV-3,> 100 µM (inactive)
same,GI50,OVCAR-8,> 100 µM (inactive)
same,GI50,IGROV-1,89.9 µM (inactive)
same,GI50,HL-60,> 100 µM (inactive)
same,GI50,CCRF-CEM,37.3 µM (inactive)
same,GI50,SW-620,98.2 µM (inactive)
same,GI50,HOP-92,54.3 µM (inactive)
same,GI50,SNB-75,33.4 µM (inactive)
same,GI50,RXF 393,38.5 µM (inactive)
same,GI50,OVCAR-5,> 100 µM (inactive)
same,GI50,U-251,88.9 µM (inactive)
same,GI50,DU-145,> 100 µM (inactive)
same,GI50,MDA-MB-231,> 100 µM (inactive)
same,GI50,UACC-257,> 100 µM (inactive)
same,GI50,Malme-3M,> 100 µM (inactive)
same,GI50,SNB-19,> 100 µM (inactive)
same,GI50,HT-29,> 100 µM (inactive)
same,GI50,CAKI-1,> 100 µM (inactive)
same,GI50,SK-MEL-28,> 100 µM (inactive)
same,GI50,HCT-116,58.3 µM (inactive)
same,GI50,MOLT-4,24 µM (inactive)
same,GI50,SF-295,> 100 µM (inactive)
same,GI50,MCF7,> 100 µM (inactive)
same,GI50,SF-539,> 100 µM (inactive)
same,GI50,MDA-MB-435,> 100 µM (inactive)
same,GI50,EKVX,> 100 µM (inactive)
same,GI50,COLO 205,> 100 µM (inactive)
same,GI50,BT-549,> 100 µM (inactive)
same,GI50,OVCAR-4,> 100 µM (inactive)
same,GI50,PC-3,36.6 µM (inactive)
same,GI50,RPMI-8226,81.8 µM (inactive)
same,GI50,HCT-15,79.3 µM
same,GI50,K562,50.4 µM (inactive)
same,GI50,NCI-H23,39.5 µM (inactive)
same,GI50,MDA-N,> 100 µM (inactive)
same,GI50,SR,> 100 µM (inactive)
same,GI50,UO-31,> 100 µM (inactive)
same,GI50,SK-MEL-5,19.8 µM (inactive)
same,GI50,A498,> 100 µM (inactive)
same,GI50,M14,> 100 µM (inactive)
same,GI50,KM12,> 100 µM (inactive)
same,GI50,UACC-62,86.9 µM (inactive)
same,GI50,TK-10,> 100 µM (inactive)
same,GI50,NCI-H226,> 100 µM (inactive)
same,GI50,OVCAR-3,42.4 µM (inactive)
same,GI50,ACHN,> 100 µM (inactive)
same,GI50,NCI/ADR-RES,> 100 µM (inactive)
same,GI50,HCC 2998,> 100 µM (inactive)
same,GI50,T47D,43.9 µM (inactive)
same,GI50,Hs-578T,41.1 µM (inactive)
same,GI50,NCI-H460,89.1 µM (inactive)
same,GI50,A549,> 100 µM (inactive)
same,GI50,786-0,> 100 µM (inactive)
same,GI50,NCI-H522,64 µM (inactive)
O=C(c1ccccc1)c1ccc(-n2c3ccccc3c3ccc4c(c32)C(=O)C=CC4=O)cc1,GI50,SK-MEL-2,19.3 µM (inactive)
same,GI50,LOX IMVI,3.41 µM (inactive)
same,GI50,SK-OV-3,20.9 µM (inactive)
same,GI50,OVCAR-8,7.24 µM (inactive)
same,GI50,IGROV-1,16 µM (inactive)
same,GI50,HL-60,2.8 µM (inactive)
same,GI50,CCRF-CEM,1.11 µM (active)
same,GI50,SW-620,3.88 µM (inactive)
same,GI50,HOP-92,3.48 µM (inactive)
same,GI50,SNB-75,22.7 µM (inactive)
same,GI50,RXF 393,5.24 µM (inactive)
same,GI50,OVCAR-5,18.7 µM (inactive)
same,GI50,U-251,14.7 µM (inactive)
same,GI50,DU-145,10.5 µM (inactive)
same,GI50,MDA-MB-231,8.24 µM (inactive)
same,GI50,UACC-257,12.7 µM (inactive)
same,GI50,SNB-19,20.9 µM (inactive)
same,GI50,HT-29,2.82 µM (inactive)
same,GI50,CAKI-1,2.07 µM (inactive)
same,GI50,SK-MEL-28,8.83 µM (inactive)
same,GI50,HCT-116,5.2 µM (inactive)
same,GI50,MOLT-4,1.75 µM (inactive)
same,GI50,SF-295,15.7 µM (inactive)
same,GI50,MCF7,3.21 µM (inactive)
same,GI50,SF-539,10.4 µM (inactive)
same,GI50,MDA-MB-435,6.01 µM (inactive)
same,GI50,EKVX,11 µM (inactive)
same,GI50,COLO 205,9.12 µM (inactive)
same,GI50,BT-549,20.3 µM (inactive)
same,GI50,OVCAR-4,16.3 µM (inactive)
same,GI50,PC-3,11.7 µM (inactive)
same,GI50,RPMI-8226,6.17 µM (inactive)
same,GI50,HCT-15,11.3 µM
same,GI50,SF-268,10.7 µM (inactive)
same,GI50,K562,3.4 µM (inactive)
same,GI50,NCI-H23,12.8 µM (inactive)
same,GI50,MDA-N,16.5 µM (inactive)
same,GI50,SR,3.15 µM (inactive)
same,GI50,HOP-62,16.4 µM (inactive)
same,GI50,UO-31,2.74 µM (inactive)
same,GI50,SK-MEL-5,18.7 µM (inactive)
same,GI50,SN12C,9.08 µM (inactive)
same,GI50,A498,12.2 µM (inactive)
same,GI50,M14,9.2 µM (inactive)
same,GI50,KM12,17.5 µM (inactive)
same,GI50,UACC-62,13.1 µM (inactive)
same,GI50,TK-10,12.7 µM (inactive)
same,GI50,NCI-H226,23.3 µM (inactive)
same,GI50,OVCAR-3,7.59 µM (inactive)
same,GI50,ACHN,4.38 µM (inactive)
same,GI50,NCI/ADR-RES,18.8 µM (inactive)
same,GI50,HCC 2998,11.2 µM (inactive)
same,GI50,T47D,3.1 µM (inactive)
same,GI50,Hs-578T,23.4 µM (inactive)
same,GI50,NCI-H460,18.5 µM (inactive)
same,GI50,A549,18.5 µM (inactive)
same,GI50,786-0,2.06 µM (inactive)
same,GI50,NCI-H522,3.43 µM (inactive)
